Legend:
Test in all cases: relative viability (nuclei count vs DMSO), 5 days (fraction); higher = more cells survive
XMD14-99 + Lapatinib = compound: CN1CCN(CC1)C2=CC(=C(C=C2)NC3=NC(=C(S3)C(=O)C4=C(C=CC=C4Cl)Cl)N)OC [XMD14-99] + CS(=O)(=O)CCNCc1ccc(-c2ccc3ncnc(Nc4ccc(OCc5cccc(F)c5)c(Cl)c4)c3c2)o1 [Lapatinib] (partner 2 µM)
Procedure, shortened: (§1)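 Relative viability equals treated-well nuclei counts divided by vehicle-well nuclei counts. Counts came from 4× images of lung cancer cell lines grown in 1536-well plates for 5 days after pin-tool dosing on the day after seeding. Dosing used one drug alone or a fixed anchor-drug dose plus five library-drug doses (not always all listed) in √10 steps, and values are medians of duplicate plates.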

AZD1208 + Crizotinib = compound: N[C@@H]1CCCN(c2c(/C=C3\SC(=O)NC3=O)cccc2-c2ccccc2)C1 [AZD1208] + C[C@@H](Oc1cc(-c2cnn(C3CCNCC3)c2)cnc1N)c1c(Cl)ccc(F)c1Cl [Crizotinib] (partner 1 µM)
Procedure, shortened: as §1

AZD1208 + Decitabine = compound: N[C@@H]1CCCN(c2c(/C=C3\SC(=O)NC3=O)cccc2-c2ccccc2)C1 [AZD1208] + Nc1ncn([C@H]2C[C@H](O)[C@@H](CO)O2)c(=O)n1 [Decitabine] (partner 2 µM)
Procedure, shortened: as §1

AZD1208 + Olaparib = compound: N[C@@H]1CCCN(c2c(/C=C3\SC(=O)NC3=O)cccc2-c2ccccc2)C1 [AZD1208] + O=C(c1cc(Cc2n[nH]c(=O)c3ccccc23)ccc1F)N1CCN(C(=O)C2CC2)CC1 [Olaparib] (partner 8 µM)
Procedure, shortened: as §1

| Cell Line | relative viability (XMD14-99 + Lapatinib; first compound 0.08 µM) | relative viability (XMD14-99 + Lapatinib; first compound 0.8 µM) | relative viability (XMD14-99 + Lapatinib; first compound 2.53 µM) | relative viability (XMD14-99 + Lapatinib; first compound 8 µM) | relative viability (AZD1208 + Crizotinib; first compound 0.08 µM) | relative viability (AZD1208 + Crizotinib; first compound 0.253 µM) | relative viability (AZD1208 + Crizotinib; first compound 0.8 µM) | relative viability (AZD1208 + Crizotinib; first compound 2.53 µM) | relative viability (AZD1208 + Crizotinib; first compound 8 µM) | relative viability (AZD1208 + Decitabine; first compound 0.08 µM) | relative viability (AZD1208 + Decitabine; first compound 0.253 µM) | relative viability (AZD1208 + Decitabine; first compound 0.8 µM) | relative viability (AZD1208 + Decitabine; first compound 2.53 µM) | relative viability (AZD1208 + Decitabine; first compound 8 µM) | relative viability (AZD1208 + Olaparib; first compound 0.08 µM) | relative viability (AZD1208 + Olaparib; first compound 0.253 µM) | relative viability (AZD1208 + Olaparib; first compound 0.8 µM) | relative viability (AZD1208 + Olaparib; first compound 2.53 µM) | relative viability (AZD1208 + Olaparib; first compound 8 µM) |
| --- | --- | --- | --- | --- | --- | --- | --- | --- | --- | --- | --- | --- | --- | --- | --- | --- | --- | --- | --- |
| LU99A | 0.94 | 0.976 | 0.879 | 0.695 | 0.517 | 0.541 | 0.519 | 0.488 | 0.446 | 0.991 | 0.899 | 0.795 | 0.852 | 0.799 | 0.273 | 0.266 | 0.273 | 0.235 | 0.246 |
| LXF-289 | 0.923 | 0.885 | 0.866 | 0.704 | 0.853 | 0.894 | 0.8 | 0.814 | 0.928 | 0.36 | 0.423 | 0.378 | 0.36 | 0.289 | 1.03 | 1.23 | 1.06 | 1.03 | 1.01 |
| NCI-H23 | 1.08 | 1.29 | 1.14 | 0.881 | 0.377 | 0.467 | 0.372 | 0.426 | 0.34 | 0.292 | 0.285 | 0.308 | 0.329 | 0.275 | 0.321 | 0.324 | 0.292 | 0.298 | 0.279 |
| NCI-H322M | 0.573 | 0.583 | 0.609 | 0.598 | 1.14 | 0.972 | 0.975 | 0.607 | 0.974 | 0.669 | 0.659 | – | 0.669 | 0.713 | 0.762 | 0.799 | – | 0.726 | 0.834 |
| NCI-H358 | 0.45 | 0.45 | 0.317 | 0.231 | 0.537 | 0.559 | 0.499 | 0.566 | 0.438 | 0.206 | 0.188 | 0.185 | 0.207 | 0.197 | 0.636 | 0.515 | 0.501 | 0.544 | 0.525 |
| NCI-H460 | 0.863 | 0.977 | 0.927 | 0.679 | 0.912 | 1.17 | 0.854 | 0.709 | 0.871 | 0.458 | 0.604 | 0.465 | 0.495 | 0.516 | 0.474 | 0.43 | 0.407 | 0.431 | 0.443 |
| NCI-H520 | 0.845 | 0.88 | 0.834 | 0.652 | 0.77 | 0.833 | 0.711 | 0.582 | 0.439 | 0.566 | 0.507 | 0.473 | 0.456 | 0.428 | 0.357 | 0.278 | 0.271 | 0.287 | 0.252 |
| NCI-H596 | 1.12 | 1.05 | 1.17 | 0.938 | 0.853 | 1.04 | 0.837 | 0.955 | 0.711 | 0.847 | 1.01 | 0.901 | 0.902 | 0.756 | 0.706 | 0.563 | 0.717 | 0.632 | 0.564 |
| NCI-H647 | 1.11 | 1.03 | 1.13 | 0.842 | 0.953 | 1.09 | 0.894 | 0.906 | 0.757 | 0.256 | 0.56 | 0.33 | 0.372 | 0.297 | 0.504 | 0.587 | 0.383 | 0.531 | 0.285 |
| NCI-H650 | 0.92 | 0.956 | 0.663 | 0.774 | 0.704 | 0.723 | 0.577 | 0.576 | 0.643 | 0.284 | 0.297 | 0.352 | 0.31 | 0.343 | 0.401 | 0.392 | 0.388 | 0.359 | 0.379 |
| NCI-H661 | 0.391 | 0.521 | 0.425 | 0.402 | 1.02 | 1 | – | 1 | 1.08 | 0.559 | 0.56 | 0.547 | 0.502 | 0.51 | 0.762 | 0.754 | 0.728 | 0.745 | 0.758 |
| NCI-H727 | 0.791 | 0.935 | 0.721 | 0.484 | 0.795 | 0.863 | 0.819 | 0.789 | 0.703 | 0.906 | 0.689 | 0.589 | 0.867 | 0.854 | 0.793 | 0.556 | 0.917 | 0.743 | 0.734 |
| NCI-H838 | 0.947 | 0.993 | 0.851 | 0.69 | 0.967 | 0.806 | 0.892 | 0.843 | 0.758 | 0.458 | 0.491 | 0.465 | 0.493 | 0.406 | 0.789 | 0.796 | 0.72 | 0.759 | 0.753 |
| NCI-H1355 | 1.03 | 0.958 | 1.01 | 0.61 | 0.974 | 1.09 | 0.997 | 1.06 | 0.916 | 0.331 | 0.327 | 0.335 | 0.341 | 0.33 | 0.717 | 0.689 | 0.672 | 0.68 | 0.657 |
| NCI-H1437 | 0.804 | 0.745 | 0.573 | 0.458 | 0.979 | 0.961 | 1.03 | 0.998 | 1.04 | 0.546 | 0.594 | 0.638 | 0.581 | 0.536 | 0.651 | 0.648 | 0.606 | 0.673 | 0.676 |
| NCI-H1650 | 0.702 | 1.03 | 0.725 | 0.619 | 0.954 | 0.972 | 1.04 | 0.921 | 0.71 | 0.513 | 0.502 | 0.403 | 0.376 | 0.449 | 0.712 | 0.787 | 0.839 | 0.856 | 0.796 |
| NCI-H1651 | 0.779 | 0.823 | 0.79 | 0.705 | 0.899 | 0.918 | 0.83 | 0.835 | 0.81 | 0.665 | 0.642 | – | 0.613 | 0.554 | 0.198 | 0.186 | – | 0.172 | 0.172 |

— the supplement of paper PMC10307832
